What was measured:
[1] = test system: mouse anti-RT3 scFv clone 96 (PCR pattern A); assay: competitive inhibition ELISA, scFv binding to RT3-BSA; details: 100 uM competitor, preincubated 1 hour at room temperature; ELISA signal normalized to no inhibitor (FIG. 8)
Experimental: (§1) The clones selected for analysis and their corresponding PCR pattern (see Table 1, Example 4.3) were: 50 (PCR B), 64 (PCR A), 68 (PCR D), 71 (PCR E), 80 (PCR C), 84 (PCR A), 95 (PCR I), 96 (PCR A), and 97 (PCR A). Soluble scFv was purified from 50 ml cultures of each clone using the IMAC protocol described in Example 4.1, except bound antibody was eluted with 50 mM EDTA, 0.5M NaCl. The scFv concentration for each clone was estimated from silver stained SDS polyacrylamide gels by running a portion of the eluted protein on a gel containing appropriate scFv concentration standards. The scFv protein was diluted to 4 ug/ml and then serially diluted 1:2 across 11 wells of RT3-BSA coated ELISA plate. The concentration of scFv giving 50% of the maximum ELISA signal was determined from the titration. This concentration of scFv was used for a subsequent competitive inhibition assay described below.
(§2) A competitive inhibition ELISA assay was performed by incubating scFV (at a concentration as determined by titration above) with 100 uM of each of the following compounds: RT3 hapten (Compound 7, FIG. 1), left hand portion of RT3 hapten (designated RT3A, Compound 8, FIG. 2), right hand portion of RT3 hapten (designated RT3B, Compound 12, FIG. 3), The left and right hand portions of the expected products from the esteriolytic cleavage of substrate (Compound 15, FIG. 4) designated Product A (Mesitylacetic acid, FIG. 4) and Product B (Compound 13, FIG. 4). The scFv was preincubated with the inhibitor compound in tubes at room temperature for 1 hour prior to addition to RT3-BSA coated ELISA wells. The […] readings have been normalized to a value of 1, which represents the ELISA signal seen for the corresponding scFv in the absence of added competitive inhibitor.

[2] = test system: mouse anti-RT3 scFv clone 84 (PCR pattern A); assay: as above; details: 100 uM competitor, preincubated 1 hour at room temperature; ELISA signal normalized to no inhibitor (FIG. 8)
Experimental: as §1, §2

[3] = test system: mouse anti-RT3 scFv clone 97 (PCR pattern A); assay: as above; details: 100 uM competitor, preincubated 1 hour at room temperature; ELISA signal normalized to no inhibitor (FIG. 8)
Experimental: as §1, §2

[4] = test system: mouse anti-RT3 scFv clone 64 (PCR pattern A); assay: as above; details: 100 uM competitor, preincubated 1 hour at room temperature; ELISA signal normalized to no inhibitor (FIG. 8)
Experimental: as §1, §2

[5] = test system: mouse anti-RT3 scFv clone 50 (PCR pattern B); assay: as above; details: 100 uM competitor, preincubated 1 hour at room temperature; ELISA signal normalized to no inhibitor (FIG. 8)
Experimental: as §1, §2

[6] = test system: mouse anti-RT3 scFv clone 80 (PCR pattern C); assay: as above; details: 100 uM competitor, preincubated 1 hour at room temperature; ELISA signal normalized to no inhibitor (FIG. 8)
Experimental: as §1, §2

[7] = test system: mouse RT3 phage antibody scFv clone 68 (PCR pattern D); assay: as above; details: 100 uM competitor, preincubated 1 hour at room temperature; ELISA signal normalized to no inhibitor (FIG. 8); clone cross-reacts with BSA
Experimental: as §1, §2

[8] = test system: mouse RT3 phage antibody scFv clone 71 (PCR pattern E); assay: as above; details: 100 uM competitor, preincubated 1 hour at room temperature; ELISA signal normalized to no inhibitor (FIG. 8); clone cross-reacts with BSA
Experimental: as §1, §2

[9] = test system: mouse anti-RT3 scFv clone 95 (PCR pattern I); assay: as above; details: 100 uM competitor, preincubated 1 hour at room temperature; ELISA signal normalized to no inhibitor (FIG. 8)
Experimental: as §1, §2

[10] = test system: catalytic mouse anti-RT3 scFv clone 18; assay: catalytic assay (HPLC), hydrolysis of RT3 substrate by scFv; assay type: biochemical
Experimental: (§3) To further examine the scFv fragments for catalytic activity, the potentially-catalytic proteins identified in the early screen described above were individually grown and purified. Purification of the scFv was acheived as described in Example 6.1 using either IMAC or affinity chromotagraphy on anti-Myc-Protein A agarose. Assays were performed in the same buffer systems and pH values as in the early screen but the antibodies were tested individually and they were not immobilized but free in solution.
(§4) From these secondary assays, two scFv molecules, designated 18 and 83, catalytic activity was found. Clone 18 appeared to be active at pH 9.0 but not at pH 7.0 while clone 83 appeared to be active at pH 7.0 but not at pH 9.0 or 5.0. […] These two clones were selected as candidates for large scale purifcation of scFv as described below. The results of these assays are presented in Example 6.4.
For clone 18 a typical catalytic assay was set up as follows: 50 μl of scFv was added to 145 μl of RT3 substrate (Compound 15, FIG. 4) and 5 μl of water or for some assays 5 μl of RT3 hapten. A blank consisting of 50 μl of water and […] of RT3 substrate was set up to monitor the background hydrolysis of the RT3 substrate. The reaction was allowed to proceed for 6 hours after which samples were frozen at -20° C. to stop the reaction. Samples were analyzed by HPLC as described in example 5.1. […]

[11] = test system: catalytic mouse anti-RT3 scFv clone 83; assay: as above; assay type: biochemical
Experimental: as §3, §4
Assay of IMAC or HIC purified scFv from clone 83 was done in a similar manner as described for clone 18 with the following exceptions. Substrate was buffered in 25 mM HEPES, pH 7.0, 140 mM NaCl and 0.01% NaN3. Due to the lower background hydrolysis of RT3 substrate at neutral pH, reactions were typically run for 24 hours. A blank was also analyzed and gives a profile similar to the that in FIG. 17B (data not shown).

SMILES	inhibition of scFv binding to RT3-BSA [1]	inhibition of scFv binding to RT3-BSA [2]	inhibition of scFv binding to RT3-BSA [3]	inhibition of scFv binding to RT3-BSA [4]	inhibition of scFv binding to RT3-BSA [5]	inhibition of scFv binding to RT3-BSA [6]	inhibition of scFv binding to RT3-BSA [7]	inhibition of scFv binding to RT3-BSA [8]	inhibition of scFv binding to RT3-BSA [9]	catalysis in the presence of RT3 hapten ([10]; IMAC pure scFv, 50 uM RT3 substrate, pH 9.0, 6 hours, 5 μl RT3 hapten added (concentration not given), FIG. 15B)	inhibition of catalytic activity ([10]; secondary screening, pH 9.0, 10 μM antibody, 40 μM substrate, 30 μM hapten)	catalysis in the presence of RT3 hapten ([11]; IMAC pure scFv, RT3 substrate, pH 7.0, 24 hours, RT3 hapten added (concentration not given), FIG. 17B)	inhibition of catalytic activity ([11]; secondary screening, pH 7.0, 10 μM antibody, 40 μM substrate, 30 μM hapten)
COP(=O)(O)Cc1c(C)cc(C)cc1C [RT3A]	binding inhibition	binding inhibition	binding inhibition	binding inhibition	binding inhibition								
Cc1cc(C)c(CP(=O)(O)Oc2ccc(CC(=O)O)cc2)c(C)c1 [RT3 hapten, 4-(carboxymethyl) phenyl-(2,4,6-trimethylphenyl)-methyl phosphonate]	inhibited	inhibited	inhibited	inhibited	inhibited	inhibited	did not show inhibition	did not show inhibition	inhibited	completely abrogated	significantly inhibited	completely abrogated	significantly inhibited
Cc1cc(C)c(CC(=O)O)c(C)c1 [Product A, Mesitylacetic acid, reference compound]	to a lesser extent			to a lesser extent									
NC(=O)Cc1ccc(O)cc1 [Product B, 4-Hydroxyphenylacetamide]	No inhibition	No inhibition	No inhibition	No inhibition	No inhibition	No inhibition	No inhibition	No inhibition	No inhibition				
